Experimental data published in patent US12365655B2, “Compounds” (CTXT PTY LTD, priority 2018, dated 2025).

Assays:
[1] = test system: acetylation of the histone H3 Lysine 14 marker in U2OS cells; assay: Histone H3 Lysine 14 Acetylation Biomarker Assay; assay type: cell-based; conditions: Homo sapiens, serum free medium, 24 hours incubation, read-out: IC50, inhibition of histone H3 Lysine 14 acetylation
Description: Compounds were tested for their ability to inhibit acetylation of the histone H3 Lysine 14 marker in the following assay:
The cell line U2OS was seeded at a density of 3,000 cells per well in 384-well optical quality tissue culture plates in RPMI medium supplemented with 10% foetal bovine serum and 10 mM Hepes. The cells were allowed to adhere for 24 hours under standard culture conditions (37 degree Celsius, 5% CO2). At the end of this period the cells were washed with serum free medium. […] After incubation for 24 hours, the cells were fixed with 4% formaldehyde in PBS for 15 minutes at room temperature, washed with phosphate buffer saline and blocked with blocking buffer containing 0.2% TritonX100 and 2% BSA. Anti-H3K14ac specific antibody (Cell Signalling Technologies) in blocking buffer was added and incubated overnight at 4 degree Celsius. After washing, a secondary antibody labelled with AlexaFluor 488 dye (ThermoFisher) and Hoechst 33342 (1 μg/mL, Life Technologies) were added for 2 hours incubation at room temperature. Plates were washed and read on a PerkinElmer Opera HCS high content imaging platform. Using a Columbus image analysis pipeline, individual nuclei were located by Hoechst 33342 stain and the acetylation level was calculated from the AlexaFluor 488-related intensity in the same area.

[2] = biological target: MOZ-KAT6A (Homo sapiens, UniProt Q92794, A567V); assay: Acetyltransferase biochemical assay (AlphaScreen), KAT6A
Chain of MOZ-KAT6A (Q92794 with tags, fused parts or gaps A567V): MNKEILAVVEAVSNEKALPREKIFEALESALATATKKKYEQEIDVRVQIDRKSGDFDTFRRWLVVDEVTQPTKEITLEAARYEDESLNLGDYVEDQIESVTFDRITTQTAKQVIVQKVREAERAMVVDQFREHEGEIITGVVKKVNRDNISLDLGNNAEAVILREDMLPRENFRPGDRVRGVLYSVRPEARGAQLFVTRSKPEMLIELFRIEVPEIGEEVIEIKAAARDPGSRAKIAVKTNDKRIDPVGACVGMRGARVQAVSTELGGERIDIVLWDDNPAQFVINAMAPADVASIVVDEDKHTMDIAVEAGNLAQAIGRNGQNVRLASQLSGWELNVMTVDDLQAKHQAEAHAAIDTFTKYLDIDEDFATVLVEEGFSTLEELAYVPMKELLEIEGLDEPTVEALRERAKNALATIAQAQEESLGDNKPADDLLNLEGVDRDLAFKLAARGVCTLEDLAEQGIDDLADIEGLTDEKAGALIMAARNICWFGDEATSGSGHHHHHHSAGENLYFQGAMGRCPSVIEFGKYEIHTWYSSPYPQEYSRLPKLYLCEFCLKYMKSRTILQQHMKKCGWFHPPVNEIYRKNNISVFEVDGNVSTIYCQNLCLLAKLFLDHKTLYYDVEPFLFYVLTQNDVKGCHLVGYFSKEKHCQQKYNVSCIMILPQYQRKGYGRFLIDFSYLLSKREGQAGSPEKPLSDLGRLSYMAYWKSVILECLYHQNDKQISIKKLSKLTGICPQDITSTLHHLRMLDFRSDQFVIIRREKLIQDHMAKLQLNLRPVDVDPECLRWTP

[3] = biological target: TIP60-KAT5 (Homo sapiens, UniProt Q92993); assay: Acetyltransferase biochemical assay (AlphaScreen), KAT5
Chain of TIP60-KAT5 (Q92993 with tags, fused parts or gaps isoform Q92993-2): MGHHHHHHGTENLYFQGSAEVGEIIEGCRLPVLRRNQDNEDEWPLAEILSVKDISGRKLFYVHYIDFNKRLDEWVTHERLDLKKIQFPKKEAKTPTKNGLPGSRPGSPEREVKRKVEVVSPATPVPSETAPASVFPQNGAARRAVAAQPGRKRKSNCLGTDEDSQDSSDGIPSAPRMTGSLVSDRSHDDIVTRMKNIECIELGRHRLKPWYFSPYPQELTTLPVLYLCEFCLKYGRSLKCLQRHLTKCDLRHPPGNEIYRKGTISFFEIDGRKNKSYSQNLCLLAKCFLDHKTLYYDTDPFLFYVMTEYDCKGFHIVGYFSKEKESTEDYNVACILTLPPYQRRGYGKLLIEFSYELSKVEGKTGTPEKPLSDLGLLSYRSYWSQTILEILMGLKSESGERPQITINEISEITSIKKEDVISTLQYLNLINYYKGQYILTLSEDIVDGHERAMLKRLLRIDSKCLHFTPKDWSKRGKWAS

[4] = biological target: HBO-KAT7 (Homo sapiens, UniProt O95251); assay: Acetyltransferase biochemical assay (AlphaScreen), KAT7
Chain of HBO-KAT7 (O95251 with tags, fused parts or gaps): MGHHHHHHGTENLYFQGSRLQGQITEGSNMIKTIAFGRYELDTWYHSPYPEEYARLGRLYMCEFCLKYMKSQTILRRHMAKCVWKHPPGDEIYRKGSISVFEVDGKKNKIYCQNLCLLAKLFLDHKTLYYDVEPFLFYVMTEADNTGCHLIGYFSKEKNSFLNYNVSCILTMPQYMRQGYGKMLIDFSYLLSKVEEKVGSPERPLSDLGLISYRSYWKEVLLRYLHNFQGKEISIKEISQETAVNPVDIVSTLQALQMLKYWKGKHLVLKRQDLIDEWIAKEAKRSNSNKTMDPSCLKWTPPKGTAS

[5] = biological target: T1, MOF-KAT8 (Homo sapiens, UniProt Q9H7Z6); assay: biochemical
T1 sequence (Q9H7Z6 with tags, fused parts or gaps): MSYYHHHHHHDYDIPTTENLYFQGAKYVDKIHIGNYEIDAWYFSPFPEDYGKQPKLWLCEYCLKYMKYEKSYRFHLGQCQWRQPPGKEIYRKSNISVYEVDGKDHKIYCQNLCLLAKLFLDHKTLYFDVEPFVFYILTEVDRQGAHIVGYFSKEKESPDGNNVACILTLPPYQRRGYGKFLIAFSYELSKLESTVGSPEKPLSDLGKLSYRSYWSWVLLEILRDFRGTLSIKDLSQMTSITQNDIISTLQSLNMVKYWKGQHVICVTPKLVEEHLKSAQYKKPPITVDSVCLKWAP

[6] = test system: histone H2A.Z Lysine 7 acetylation marker in U2OS cells; assay: H2A.Z Lysine 7 Acetylation Biomarker Assay; assay type: cell-based; conditions: Homo sapiens, serum free medium, 24 hours incubation, read-out: IC50, inhibition of histone H2A.Z Lysine 7 acetylation
Description: Compounds were tested for their ability to inhibit the histone H2A.Z Lysine 7 acetylation marker in the following assay:
The cell line U2OS was seeded at a density of 3,000 cells per well in 384-well optical quality tissue culture plates in RPMI medium supplemented with 10% foetal bovine serum and 10 mM Hepes. The cells were allowed to adhere for 24 hours under standard culture conditions (37 degree Celsius, 5% CO2). At the end of this period the cells were washed with serum free medium. […] 2018, at 30 μM concentration. After incubation for 24 hours, the cells were fixed with 4% formaldehyde in PBS for 15 minutes at room temperature, washed with phosphate buffer saline and blocked with blocking buffer containing 0.2% TritonX100 and 2% BSA. Anti-H2A.ZK7ac specific antibody (Abcam) in blocking buffer was added and incubated overnight at 4 degree Celsius. After washing, a secondary antibody labelled with AlexaFluor 488 dye (ThermoFisher) and Hoechst 33342 (1 μg/mL, Life Technologies) were added for 2 hours incubation at room temperature. Plates were washed and read on a PerkinElmer Opera HCS high content imaging platform. Using a Columbus image analysis pipeline, individual nuclei were located by Hoechst 33342 stain and the acetylation level was calculated from the AlexaFluor 488-related intensity in the same area.

[7] = test system: acetylation of the histone H3K23 marker in U2OS cells; assay: Histone H3 Lysine 23 Acetylation Biomarker Assay; assay type: cell-based; conditions: Homo sapiens, 24 hours incubation, read-out: IC50, inhibition of histone H3K23 acetylation
Description: Compounds were tested for their ability to inhibit acetylation of the histone H3K23 marker in the following assay:
The cell line U2OS was seeded at a density of 9,000 cells per well in 96 well optical quality tissue culture plates in RPMI medium and 10% foetal bovine serum, and allowed to adhere for 24 hours under standard culture conditions (37 degree Celsius, 5% CO2). At the end of this period the medium was aspirated. […] After incubation for 24 hours, the cells were fixed with 3.7% formaldehyde in PBS for 20 minutes at room temperature, washed (5×5 minutes) with phosphate buffer saline containing 0.1% Tween 20 and blocked with Odyssey blocking buffer (LI-COR, Lincoln, Nebr.) containing 0.1% TritonX100. Anti-H3K23ac specific antibody (Abcam ab177275) in Odyssey blocking buffer containing 0.1% Tween 20 was added and incubated for 16 hours at 4 degree Celsius. After washing (as above), a secondary antibody labelled with Alexa647 dye (LifeTechnologies) and Hoechst 33342 (1 μg/mL, SigmaAldrich) were added for 1 hour incubation. Plates were washed as previously and read on a PerkinElmer Phenix high content imaging platform. Using a Columbus image analysis pipeline, individual nuclei were located by Hoechst 33342 stain and the acetylation level was calculated from the Alexa647-related intensity in the same area.

Row | Structure (SMILES) | IC50 [1] [µM] | IC50 [2] [µM] | IC50 [3] [µM] | IC50 [4] [µM] | IC50 [5] [µM] | IC50 [6] [µM] | IC50 [7] [µM]
1 | COc1cccc2onc(NS(=O)(=O)c3cccc4c3OCCC4)c12 [Example 82, N-(4-methoxybenzo[d]isoxazol-3-yl)chromane-8-sulfonamide] | 12.6 | 6.13 | 8.25 | 1.5 | – | – | –
2 | COCc1cc(OC)c2c(NS(=O)(=O)c3c(O)cccc3OC)noc2c1 [Example 163, 2-hydroxy-6-methoxy-N-(4-methoxy-6-(methoxymethyl)benzo[d]isoxazol-3-yl)benzenesulfonamide] | 20.4 | 0.884 | > 125 | 13.1 | > 125 | – | –
3 | COc1ccnc2c(S(=O)(=O)Nc3noc4cccc(OC)c34)cccc12 [Example 75, 4-methoxy-N-(4-methoxybenzo[d]isoxazol-3-yl)quinoline-8-sulfonamide] | > 40 | 23.5 | 33.5 | 5.75 | – | – | –
4 | COc1cccc(OC)c1S(=O)(=O)Nc1noc2c(-c3ccccc3)cc(C)cc12 [Example 252, 2,6-Dimethoxy-N-(5-methyl-7-phenylbenzo[d]isoxazol-3-yl)benzenesulfonamide] | 24.7 | 4.16 | 102 | 1.3 | – | > 40 | –
5 | COc1cccc2onc(NS(=O)(=O)c3cccc4ccc(C)nc34)c12 [Example 80, N-(4-methoxybenzo[d]isoxazol-3-yl)-2-methyl quinoline-8-sulfonamide] | 11.5 | 3.47 | 10.9 | 1.13 | – | – | –
6 | COc1cccc(OC)c1S(=O)(=O)Nc1noc2cccc(OC)c12 [Example 86, 2,6-dimethoxy-N-(4-methoxybenzo[d]isoxazol-3-yl)benzene sulfonamide] | – | 5.89 | 97.6 | 1.98 | – | – | 1.58
7 | COc1ccc(S(=O)(=O)Nc2noc3cccc(OC)c23)c2ncccc12 [Example 74, 5-methoxy-N-(4-methoxybenzo[d]isoxazol-3-yl) quinoline-8-sulfonamide] | 31.7 | 3.91 | 8.13 | 1.66 | – | – | –
8 | COc1cccc(F)c1S(=O)(=O)Nc1noc2cccc(OC)c12 [Example 212, 2-Fluoro-6-methoxy-N-(4-methoxybenzo[d]isoxazol-3-yl)benzenesulfonamide] | 10.3 | 2.12 | 9.3 | 1.05 | – | – | –
9 | CCc1ccc(OC)c(S(=O)(=O)Nc2noc3ccc(C)cc23)c1 [Example 234, 5-Ethyl-2-methoxy-N-(5-methylbenzo[d]isoxazol-3-yl)benzenesulfonamide] | – | 0.381 | 10.9 | 3.74 | – | > 40 | –
10 | COc1ccc(S(=O)(=O)Nc2noc3cc(Br)c(C)cc23)c(OC)c1 [Example 171] | 2.57 | 1.88 | 4.37 | 0.292 | – | – | –
11 | CCc1ccc(OC)c(S(=O)(=O)Nc2noc3ccc(C4CC4)cc23)c1 [Example 236] | > 40 | 0.318 | 10.1 | 1.07 | 3.68 | > 40 | –
12 | O=S(=O)(Nc1noc2cccc(Cl)c12)c1ccccc1 [Example 151, N-(4-chlorobenzo[d]isoxazol-3-yl)benzenesulfonamide] | – | 27.9 | > 125 | 25.6 | 34.7 | – | –
13 | CCOc1cccc(OC)c1S(=O)(=O)Nc1noc2cccc(OC)c12 [Example 218, 2-Ethoxy-6-methoxy-N-(4-methoxybenzo[d]isoxazol-3-yl)benzenesulfonamide] | > 40 | 6.59 | > 125 | 6.44 | – | – | –
14 | COc1cc(CNC(C)=O)cc(OC)c1S(=O)(=O)Nc1noc2cccc(OC)c12 [Example 211, N-(3,5-Dimethoxy-4-(N-(4-methoxybenzo[d]isoxazol-3-yl)sulfamoyl)benzyl)acetamide] | > 40 | 2.13 | 7.93 | 0.917 | 29.5 | – | –
15 | O=S(=O)(Nc1noc2cccc(Cl)c12)c1ccccc1-c1cnco1 [Example 11, N-(4-chlorobenzo [d]isoxazol-3-yl)-2-(oxazol-5-yl)benzenesulfonamide] | – | > 125 | > 125 | 60.5 | 35.6 | – | –
16 | COc1ccc(S(=O)(=O)Nc2noc3cc(C(N)=O)c(C)cc23)c2ncccc12 [Example 168, 3-((5-methoxyquinoline)-8-sulfonamido)-5-methylbenzo[d]isoxazole-6-carboxamide] | – | 10 | 3.42 | 36.4 | 6.46 | > 40 | –
17 | COCc1cc2onc(NS(=O)(=O)c3ccc(OC)nc3)c2cc1C [Example 164, 6-methoxy-N-(6-(methoxymethyl)-5-methylbenzo[d]isoxazol-3-yl)pyridine-3-sulfonamide] | – | 27.2 | > 125 | 61.6 | > 125 | – | –
18 | COc1cccc(OC)c1S(=O)(=O)Nc1noc2cc(Br)cc(OC)c12 [Example 89] | 3.96 | 0.285 | 5.79 | 0.168 | – | 19.8 | –
19 | CCc1cc(S(=O)(=O)Nc2noc3cccc(Cl)c23)c(=O)n(C)c1 [Example 107, N-(4-Chlorobenzo[d]isoxazol-3-yl)-5-ethyl-1-methyl-2-oxo-1,2-dihydropyridine-3-sulfonamide] | – | 14.9 | 74.1 | 11.7 | 42.1 | – | –
20 | Cc1ncc(-c2ccc(C)c(S(=O)(=O)Nc3noc4cccc(Cl)c34)c2)o1 [Example 18, N-(4-chlorobenzo [d]isoxazol-3-yl)-2-methyl-5-(2-methyloxazol-5-yl)benzenesulfonamide] | – | 74.9 | 118 | 34.1 | 63.5 | – | –
21 | CCc1ccc(OC)c(S(=O)(=O)Nc2noc3cccc(OC)c23)c1OC [Example 94, 3-Ethyl-2,6-dimethoxy-N-(4-methoxybenzo[d]isoxazol-3-yl)benzenesulfonamide] | – | 6.11 | 124 | 16.1 | 60.9 | – | –
22 | COc1cccc(OC)c1S(=O)(=O)Nc1noc2cccc(N)c12 [Example 224] | – | 50.4 | > 125 | > 125 | 113 | – | –
23 | COc1cccc(OCC(N)=O)c1S(=O)(=O)Nc1noc2cccc(OC)c12 [Example 219, 2-(3-Methoxy-2-(N-(4-methoxybenzo[d]isoxazol-3-yl)sulfamoyl)phenoxy)acetamide] | – | 33.3 | > 125 | 60.7 | 69.9 | – | –
